Laboratory results published in US6479435B1, “Diaryl ethers and processes for their preparation and herbicidal and desiccant compositions containing them” (ISK Americas Incorporated, priority 1997, dated 2002).

Columns and labels:
Format in all cases: in vivo
[1] = system: common ragweed (Ambrosia artemisiifolia L., AMBEL); test: Post-emerge greenhouse herbicide test, phytotoxicity rating; conditions: 14 days after application; for phytotoxicity rating AMBEL: scale 0-100
Procedure, shortened: (§1)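 Scores use a 0 (no damage) to 100 (complete kill) scale, taken 14 days after a foliar spray. Acetone solutions with 0.25% v/v non-ionic surfactant were applied by track sprayer at 187 l/ha and 63-1000 g ai/ha to bottom-watered 2-3 leaf plants.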

[2] = system: field corn (Zea mays L., var. Dekalb 535, CORN); test: Pre-emerge greenhouse test, crop damage rating; conditions: 14 days after application, rating scale 0-100
Procedure, shortened: (§2)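 Visual 0–100 injury rating (100 = all plants dead) taken 14 days after treatment. Rates of 125–1000 g ai/ha in acetone, 187 l/ha, were sprayed onto soil one day post-sowing; pots were surface-watered to incorporate, then bottom-watered.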

[3] = system: upland rice (Oryza sp., var.Tebonnet, RICE); test: Pre-emerge greenhouse test, crop damage rating; conditions: 14 days after application, rating scale 0-100
Procedure, shortened: as §2

[4] = system: barnyardgrass (Echinochloa crusgalli, ECHCG); test: Post-emerge greenhouse herbicide test, phytotoxicity rating; conditions: 14 days after application; for phytotoxicity rating ECHCG: scale 0-100
Procedure, shortened: as §1

[5] = system: velvetleaf (Abutilon theophrasti, ABUTH); test: as above; conditions: 14 days after application; for phytotoxicity rating ABUTH: scale 0-100
Procedure, shortened: as §1

[6] = system: redroot pigweed (Amaranthus retroflexus, AMARE); test: as above; conditions: 14 days after application; for phytotoxicity rating AMARE: scale 0-100
Procedure, shortened: as §1

[7] = system: lambsquarters (Chenopodium album, CHEAL); test: as above; conditions: 14 days after application; for phytotoxicity rating CHEAL: scale 0-100
Procedure, shortened: as §1

[8] = system: green foxtail (Setaria viridis, SETVI); test: as above; conditions: 14 days after application; for phytotoxicity rating SETVI: scale 0-100
Procedure, shortened: as §1

[9] = system: Johnsongrass (Sorghum halepense, SORHA); test: as above; conditions: 14 days after application; for phytotoxicity rating SORHA: scale 0-100
Procedure, shortened: as §1

[10] = system: ivyleaf morningglory (Ipomoea hederacea, IPOHE); test: as above; conditions: 14 days after application; for phytotoxicity rating IPOHE: scale 0-100
Procedure, shortened: as §1

[11] = system: large crabgrass (Digitaria sanguinalis, DIGSA); test: as above; conditions: 14 days after application; for phytotoxicity rating DIGSA: scale 0-100
Procedure, shortened: as §1

[12] = system: field corn (Zea mays L., var. Dekalb 535, CORN); test: Post-emerge greenhouse test, crop damage rating; conditions: 14 days after application; for crop damage rating CORN: scale 0-100
Procedure, shortened: as §1

[13] = system: upland rice (Oryza sp., var.Tebonnet, RICE); test: Post-emerge greenhouse test, crop damage rating; conditions: 14 days after application; for crop damage rating RICE: scale 0-100
Procedure, shortened: as §1

[14] = system: soybean (Glycine max L., var. Pella 86, SOY); test: Pre-emerge greenhouse test, crop damage rating; design: key to SOY crop damage rating: 0 = no damage, 100 = complete death of all plants; conditions: 14 days after application, rating scale 0-100
Procedure, shortened: as §2

[15] = system: soybean (Glycine max L., var. Pella 86, SOY); test: Post-emerge greenhouse test, crop damage rating; design: key to crop damage rating SOY: 0-100 scale: 0 = no damage, 100 = complete death of all plants; conditions: 14 days after application; for crop damage rating SOY: scale 0-100
Procedure, shortened: as §1

[16] = system: barnyardgrass (Echinochloa crusgalli, ECHCG); test: Pre-emerge greenhouse herbicide test, phytotoxicity rating; conditions: 14 days after application, rating scale 0-100
Procedure, shortened: as §2

[17] = system: velvetleaf (Abutilon theophrasti, ABUTH); test: as above; conditions: 14 days after application, rating scale 0-100
Procedure, shortened: as §2

[18] = system: redroot pigweed (Amaranthus retroflexus, AMARE); test: as above; conditions: 14 days after application, rating scale 0-100
Procedure, shortened: as §2

[19] = system: common ragweed (Ambrosia artemisiifolia L., AMBEL); test: as above; conditions: 14 days after application, rating scale 0-100
Procedure, shortened: as §2

[20] = system: lambsquarters (Chenopodium album, CHEAL); test: as above; conditions: 14 days after application, rating scale 0-100
Procedure, shortened: as §2

[21] = system: green foxtail (Setaria viridis, SETVI); test: as above; conditions: 14 days after application, rating scale 0-100
Procedure, shortened: as §2

[22] = system: Johnsongrass (Sorghum halepense, SORHA); test: as above; conditions: 14 days after application, rating scale 0-100
Procedure, shortened: as §2

[23] = system: ivyleaf morningglory (Ipomoea hederacea, IPOHE); test: as above; conditions: 14 days after application, rating scale 0-100
Procedure, shortened: as §2

[24] = system: sicklepod (Cassia obtusifolia, CASOB); test: as above; conditions: 14 days after application, rating scale 0-100
Procedure, shortened: as §2

[25] = system: large crabgrass (Digitaria sanguinalis, DIGSA); test: as above; conditions: 14 days after application, rating scale 0-100
Procedure, shortened: as §2

SMILES: O=c1n(-c2cc(Oc3ccccn3)c(Cl)cc2F)c(=S)n2n1CCCC2 [Compound 8-17]
- phytotoxicity rating AMBEL ([1]; rate 63 g ai/ha): 60
- phytotoxicity rating AMBEL ([1]; rate 500 g ai/ha): 100
- CORN crop damage rating ([2]; Rate 125 g al/ha): 10
- CORN crop damage rating ([2]; Rate 500 g al/ha): 30
- RICE crop damage rating ([3]; Rate 125 g al/ha): 50
- RICE crop damage rating ([3]; Rate 500 g al/ha): 95
- phytotoxicity rating ECHCG ([4]; rate 63 g ai/ha): 90
- phytotoxicity rating ECHCG ([4]; rate 500 g ai/ha): 100
- phytotoxicity rating ABUTH ([5]; rate 63 g ai/ha): 100
- phytotoxicity rating ABUTH ([5]; rate 500 g ai/ha): 100
- phytotoxicity rating AMARE ([6]; rate 63 g ai/ha): 100
- phytotoxicity rating AMARE ([6]; rate 500 g ai/ha): 100
- phytotoxicity rating CHEAL ([7]; rate 63 g ai/ha): 99
- phytotoxicity rating CHEAL ([7]; rate 500 g ai/ha): 100
- phytotoxicity rating SETVI ([8]; rate 63 g ai/ha): 50
- phytotoxicity rating SETVI ([8]; rate 500 g ai/ha): 90
- phytotoxicity rating SORHA ([9]; rate 63 g ai/ha): 50
- phytotoxicity rating SORHA ([9]; rate 500 g ai/ha): 100
- phytotoxicity rating IPOHE ([10]; rate 63 g ai/ha): 100
- phytotoxicity rating IPOHE ([10]; rate 500 g ai/ha): 100
- phytotoxicity rating DIGSA ([11]; rate 63 g ai/ha): 50
- phytotoxicity rating DIGSA ([11]; rate 500 g ai/ha): 90
- crop damage rating CORN ([12]; rate 63 g ai/ha): 20
- crop damage rating CORN ([12]; rate 500 g ai/ha): 10
- crop damage rating RICE ([13]; rate 63 g ai/ha): 40
- crop damage rating RICE ([13]; rate 500 g ai/ha): 90
- SOY crop damage rating ([14]; Rate 125 g al/ha): 0
- SOY crop damage rating ([14]; Rate 500 g al/ha): 95
- crop damage rating SOY ([15]; rate 63 g ai/ha): 90
- crop damage rating SOY ([15]; rate 500 g ai/ha): 100
- ECHCG phytotoxicity rating ([16]; Rate 125 g al/ha): 85
- ECHCG phytotoxicity rating ([16]; Rate 500 g al/ha): 100
- ABUTH phytotoxicity rating ([17]; Rate 125 g al/ha): 100
- ABUTH phytotoxicity rating ([17]; Rate 500 g al/ha): 100
- AMARE phytotoxicity rating ([18]; Rate 125 g al/ha): 100
- AMARE phytotoxicity rating ([18]; Rate 500 g al/ha): 100
- AMBEL phytotoxicity rating ([19]; Rate 125 g al/ha): 100
- AMBEL phytotoxicity rating ([19]; Rate 500 g al/ha): 100
- CHEAL phytotoxicity rating ([20]; Rate 125 g al/ha): 100
- CHEAL phytotoxicity rating ([20]; Rate 500 g al/ha): 100
- SETVI phytotoxicity rating ([21]; Rate 125 g al/ha): 100
- SETVI phytotoxicity rating ([21]; Rate 500 g al/ha): 100
- SORHA phytotoxicity rating ([22]; Rate 125 g al/ha): 50
- SORHA phytotoxicity rating ([22]; Rate 500 g al/ha): 100
- IPOHE phytotoxicity rating ([23]; Rate 125 g al/ha): 80
- IPOHE phytotoxicity rating ([23]; Rate 500 g al/ha): 99
- CASOB phytotoxicity rating ([24]; Rate 125 g al/ha): 100
- CASOB phytotoxicity rating ([24]; Rate 500 g al/ha): 80
- DIGSA phytotoxicity rating ([25]; Rate 125 g al/ha): 100
- DIGSA phytotoxicity rating ([25]; Rate 500 g al/ha): 100

SMILES: O=c1n(CCCF)nnn1-c1cc(Oc2ncccc2[N+](=O)[O-])c(Cl)cc1Cl [Compound 6-3]
- AMBEL phytotoxicity rating (0-100) ([1]; 63 g al/ha): 0
- AMBEL phytotoxicity rating (0-100) ([1]; 500 g al/ha): 0
- crop damage rating CORN ([2]; 125 g ai/ha): 30
- crop damage rating CORN ([2]; 500 g ai/ha): 10
- crop damage rating RICE ([3]; 125 g ai/ha): 20
- crop damage rating RICE ([3]; 500 g ai/ha): 20
- ECHCG phytotoxicity rating (0-100) ([4]; 63 g al/ha): 0
- ECHCG phytotoxicity rating (0-100) ([4]; 500 g al/ha): 20
- ABUTH phytotoxicity rating (0-100) ([5]; 63 g al/ha): 0
- ABUTH phytotoxicity rating (0-100) ([5]; 500 g al/ha): 20
- AMARE phytotoxicity rating (0-100) ([6]; 63 g al/ha): 20
- AMARE phytotoxicity rating (0-100) ([6]; 500 g al/ha): 80
- CHEAL phytotoxicity rating (0-100) ([7]; 63 g al/ha): 0
- CHEAL phytotoxicity rating (0-100) ([7]; 500 g al/ha): 80
- SETVI phytotoxicity rating (0-100) ([8]; 63 g al/ha): 0
- SETVI phytotoxicity rating (0-100) ([8]; 500 g al/ha): 30
- SORHA phytotoxicity rating (0-100) ([9]; 63 g al/ha): 0
- SORHA phytotoxicity rating (0-100) ([9]; 500 g al/ha): 30
- IPOHE phytotoxicity rating (0-100) ([10]; 63 g al/ha): 20
- IPOHE phytotoxicity rating (0-100) ([10]; 500 g al/ha): 70
- DIGSA phytotoxicity rating (0-100) ([11]; 63 g al/ha): 0
- DIGSA phytotoxicity rating (0-100) ([11]; 500 g al/ha): 0
- CORN crop damage rating (0-100) ([12]; 63 g al/ha): 0
- CORN crop damage rating (0-100) ([12]; 500 g al/ha): 0
- RICE crop damage rating (0-100) ([13]; 63 g al/ha): 0
- RICE crop damage rating (0-100) ([13]; 500 g al/ha): 40
- crop damage rating SOY ([14]; 125 g ai/ha): 0
- crop damage rating SOY ([14]; 500 g ai/ha): 0
- SOY crop damage rating (0-100) ([15]; 63 g al/ha): 0
- SOY crop damage rating (0-100) ([15]; 500 g al/ha): 30
- phytotoxicity rating ECHCG ([16]; 125 g ai/ha): 60
- phytotoxicity rating ECHCG ([16]; 500 g ai/ha): 0
- phytotoxicity rating ABUTH ([17]; 125 g ai/ha): 40
- phytotoxicity rating ABUTH ([17]; 500 g ai/ha): 30
- phytotoxicity rating AMARE ([18]; 125 g ai/ha): 0
- phytotoxicity rating AMARE ([18]; 500 g ai/ha): 90
- phytotoxicity rating AMBEL ([19]; 125 g ai/ha): 100
- phytotoxicity rating AMBEL ([19]; 500 g ai/ha): 40
- phytotoxicity rating CHEAL ([20]; 125 g ai/ha): 0
- phytotoxicity rating CHEAL ([20]; 500 g ai/ha): 90
- phytotoxicity rating SETVI ([21]; 125 g ai/ha): 99
- phytotoxicity rating SETVI ([21]; 500 g ai/ha): 70
- phytotoxicity rating SORHA ([22]; 125 g ai/ha): 30
- phytotoxicity rating SORHA ([22]; 500 g ai/ha): 0
- phytotoxicity rating IPOHE ([23]; 125 g ai/ha): 0
- phytotoxicity rating IPOHE ([23]; 500 g ai/ha): 20
- phytotoxicity rating CASOB ([24]; 125 g ai/ha): 30
- phytotoxicity rating CASOB ([24]; 500 g ai/ha): 40
- phytotoxicity rating DIGSA ([25]; 125 g ai/ha): 10
- phytotoxicity rating DIGSA ([25]; 500 g ai/ha): 50
